Among the test systems are ACHN; DU-145; HCC 2998; HCT-116; HOP-62; K562; MDA-MB-435; MDA-N; NCI-H460; OVCAR-3; OVCAR-4; OVCAR-5; RXF 393; SF-268; SF-539; SK-OV-3; SNB-75; T47D; LOX IMVI; RPMI-8226.
Common to all, as to assay: inhibition of tumour cell growth, NCI panel, 48 h

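Compound exposure: 48 hours, 5 concentrations, 96-well plates. GI50: concentration for 50% inhibition of growth.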 Calls of active or inactive are those of the source. Rule as the data show it: active = GI50 up to about 1.1 µM and inactive = higher.

As to `CC(=O)NC1(NC(C)=O)C2CC(C1Cc1ccccc1)C(C)(C)C2C` (stereo not drawn), the GI50 in the experiment with ACHN, in the experiment with DU-145, with HCC 2998, in the experiment on HCT-116, with HOP-62 and in the experiment with K562 was > 100 µM (inactive) throughout. Further, the GI50 in the experiment with MDA-MB-435, in the experiment on MDA-N, in the experiment on NCI-H460, in the experiment on OVCAR-3, in the experiment with OVCAR-4 and in the experiment on OVCAR-5 was > 100 µM (inactive) in each case. Moreover, the GI50 in the experiment with RXF 393, in the experiment with SF-268, in the experiment with SF-539, in the experiment on SK-OV-3, with SNB-75 and in the experiment on T47D was > 100 µM (inactive) each time.

`COC(=O)C1=C(C(=O)OC)SC2(S1)C1=C(CCCC1)SC(C(=O)OC)=C2C(=O)OC`: the GI50 with ACHN is 6.05 µM (inactive); with DU-145, 1.64 µM (inactive); with HCC 2998, 12.3 µM (inactive); in the experiment with HCT-116 it was 1.52 µM (inactive); with HOP-62, 5.62 µM (inactive); in the experiment with K562 it was 1.62 µM (inactive). Also, the GI50 is 2.83 µM (inactive) in the experiment with LOX IMVI; 2.81 µM (inactive) with MDA-MB-435; 3.9 µM (inactive) in the experiment on MDA-N; 3.84 µM (inactive) in the experiment with NCI-H460; 6.89 µM (inactive) in the experiment with OVCAR-3; 12.2 µM (inactive) in the experiment with OVCAR-4. The GI50 with OVCAR-5 was 12.6 µM (inactive); in the experiment on RPMI-8226, 0.586 µM (active); with RXF 393, 2.33 µM (inactive); in the experiment with SF-268, 9.71 µM (inactive); in the experiment on SF-539 it was 1.51 µM (inactive); in the experiment with SK-OV-3 it was 14.9 µM (inactive). Moreover, in the experiment on T47D, the GI50 was 2.54 µM (inactive).

Consider `CSc1nc(Br)nc2ncn(C3CC(Oc4ccc(C)cc4)C(COc4ccc(C)cc4)O3)c12` (stereo not drawn), for which the GI50 was 28.2 µM (inactive) in the experiment with ACHN; > 100 µM (inactive) with DU-145; > 100 µM (inactive) in the experiment on HCC 2998; > 100 µM (inactive) in the experiment on HCT-116; > 100 µM (inactive) with HOP-62; > 100 µM (inactive) in the experiment on LOX IMVI. The GI50 with MDA-MB-435, in the experiment with MDA-N, with NCI-H460, with OVCAR-3, with OVCAR-4 and in the experiment with OVCAR-5 was > 100 µM (inactive) in each case. Moreover, the GI50 in the experiment on RPMI-8226 was > 100 µM (inactive); with SF-268, > 100 µM (inactive); in the experiment on SF-539, 28.9 µM (inactive); in the experiment on SK-OV-3 it was > 100 µM (inactive); in the experiment on SNB-75, 21.9 µM (inactive); in the experiment on T47D, > 100 µM (inactive).

Turning to `COC(=O)c1ccc(/C=C2\Cc3ccccc3C2=O)cc1`, the GI50 in the experiment with ACHN, with DU-145, in the experiment on HCC 2998, in the experiment with HCT-116, in the experiment on HOP-62 and with K562 was > 100 µM (inactive) throughout. The GI50 with MDA-MB-435, in the experiment on MDA-N, with NCI-H460, in the experiment with OVCAR-3, with OVCAR-4 and in the experiment with RPMI-8226 was > 100 µM (inactive) each time. In addition, the GI50 in the experiment with RXF 393, in the experiment with SF-268, with SF-539, in the experiment on SK-OV-3, in the experiment on SNB-75 and with T47D was > 100 µM (inactive) throughout.

In the case of `O/N=C1/CC2(N3CCOCC3)C3CC/C(=N\O)C2CC1(Cc1ccccc1)C3` (stereo not drawn), the GI50 in the experiment with ACHN was > 100 µM (inactive); with DU-145, > 100 µM (inactive); in the experiment with HCC 2998, > 100 µM (inactive); in the experiment on HCT-116, 44.5 µM (inactive); with HOP-62 it was > 100 µM (inactive); in the experiment on K562, 74 µM (inactive). In addition, the GI50 in the experiment on LOX IMVI, in the experiment with MDA-MB-435, in the experiment with MDA-N, in the experiment with NCI-H460, with OVCAR-3 and with OVCAR-4 was > 100 µM (inactive) each time. Further, the GI50 in the experiment with OVCAR-5 is > 100 µM (inactive); in the experiment with RXF 393 it was 18.3 µM (inactive); in the experiment on SF-268, > 100 µM (inactive); with SF-539, > 100 µM (inactive); in the experiment with SK-OV-3, > 100 µM (inactive); in the experiment with SNB-75, 36.1 µM (inactive). The GI50 in the experiment with T47D was 67 µM (inactive).

For the compound `Cc1nc2ccc(NCCN(C)C)c3c(=O)c4cc(O)ccc4n1c23`, the GI50 with ACHN is 0.103 µM (active); in the experiment on DU-145 it was 1.46 µM (inactive); in the experiment on HCC 2998, 0.252 µM (active); in the experiment with HCT-116, 0.0873 µM (active); in the experiment on HOP-62 it was 0.433 µM (active); in the experiment with K562, 0.298 µM (active). Further, the GI50 in the experiment on LOX IMVI is 0.379 µM (active); in the experiment on MDA-MB-435, 1.82 µM (inactive); in the experiment with MDA-N, 1.43 µM (inactive); with NCI-H460 it was 0.0291 µM (active); in the experiment on OVCAR-3 it was 1.27 µM (inactive); in the experiment on OVCAR-4 it was 0.63 µM (active). For the same compound, the GI50 was 1.42 µM (inactive) with OVCAR-5; 1.19 µM (inactive) in the experiment on RPMI-8226; 0.75 µM (active) in the experiment on SF-268; 0.733 µM (active) in the experiment on SF-539; 0.845 µM (active) in the experiment with SK-OV-3; 0.418 µM (active) in the experiment on SNB-75. Besides, the GI50 in the experiment on T47D was 1.21 µM (inactive).

Take `N#CC(c1ccccc1)N(CCOCCOCCN(C(=O)c1ccccc1)C(C#N)c1ccccc1)C(=O)c1ccccc1` (stereo not drawn): the GI50 was > 100 µM (inactive) in the experiment with ACHN; > 100 µM (inactive) in the experiment with DU-145; 94.2 µM (inactive) in the experiment with HCC 2998; 46.6 µM (inactive) with HCT-116; 56.6 µM (inactive) in the experiment on K562; 91.2 µM (inactive) with LOX IMVI. Also, the GI50 with MDA-MB-435 is 83 µM (inactive); in the experiment on MDA-N, > 100 µM (inactive); with NCI-H460 it was 81.3 µM (inactive); with OVCAR-3, 66.8 µM (inactive); in the experiment on OVCAR-4 it was 81.7 µM (inactive); in the experiment with OVCAR-5, > 100 µM (inactive). The GI50 with RXF 393 is > 100 µM (inactive); in the experiment with SF-268 it was > 100 µM (inactive); in the experiment on SF-539 it was > 100 µM (inactive); in the experiment with SK-OV-3, > 100 µM (inactive); with SNB-75 it was > 100 µM (inactive); in the experiment on T47D it was 7.08 µM (inactive).

As to `O=c1oc2cc(O)ccc2cc1-c1nc2ccccc2o1`, the GI50 is 32.3 µM (inactive) in the experiment with ACHN; 33.3 µM (inactive) in the experiment on DU-145; 39.8 µM (inactive) with HCC 2998; 41.6 µM (inactive) with HCT-116; 23.3 µM (inactive) in the experiment with HOP-62; 30.4 µM (inactive) with K562. Further, the GI50 was 44.4 µM (inactive) with LOX IMVI; 28.2 µM (inactive) in the experiment with MDA-MB-435; 40.8 µM (inactive) with MDA-N; 30.5 µM (inactive) in the experiment with NCI-H460; 19.1 µM (inactive) in the experiment on OVCAR-3; 29.8 µM (inactive) in the experiment on OVCAR-4. Also, the GI50 with OVCAR-5 is > 100 µM (inactive); in the experiment on RPMI-8226, 24.3 µM (inactive); in the experiment on RXF 393, < 0.01 µM (active); in the experiment with SF-268 it was 32.2 µM (inactive); in the experiment on SF-539, 58.2 µM (inactive); in the experiment on SNB-75 it was 63.8 µM (inactive). Further, in the experiment with T47D, the GI50 is 1.07 µM (active).

In the case of `CCc1c(Cc2cc(C)cc(C)c2)n2c(nc1=O)SCC2CBr` (stereo not drawn), the GI50 is > 50 µM (inactive) in the experiment with ACHN; 23.1 µM (inactive) in the experiment with DU-145; > 50 µM (inactive) in the experiment with HCC 2998; > 50 µM (inactive) in the experiment with HCT-116; > 50 µM (inactive) in the experiment on K562; > 50 µM (inactive) in the experiment with LOX IMVI. Also, the GI50 in the experiment on MDA-MB-435 was > 50 µM (inactive); in the experiment on MDA-N, > 50 µM (inactive); in the experiment on NCI-H460, > 50 µM (inactive); with OVCAR-4, 46.1 µM (inactive); in the experiment on OVCAR-5, > 50 µM (inactive); with RPMI-8226 it was > 50 µM (inactive). In addition, the GI50 in the experiment with RXF 393 is > 50 µM (inactive); with SF-268 it was > 50 µM (inactive); in the experiment on SF-539, > 50 µM (inactive); in the experiment on SNB-75, 15.5 µM (inactive); with T47D it was 22.6 µM (inactive).

Regarding `O=c1c(C(c2cccc(C(c3c(O)oc4ccccc4c3=O)c3c(O)oc4ccccc4c3=O)c2)c2c(O)oc3ccccc3c2=O)c(O)oc2ccccc12`, the GI50 in the experiment on ACHN is 36.6 µM (inactive); in the experiment on DU-145 it was 39.4 µM (inactive); in the experiment with HCC 2998, 15.6 µM (inactive); in the experiment with HCT-116, 25.1 µM (inactive); with HOP-62 it was 30.3 µM (inactive); in the experiment on K562 it was 27.9 µM (inactive). Besides, the GI50 with LOX IMVI is 18.7 µM (inactive); in the experiment on MDA-MB-435, 86.9 µM (inactive); in the experiment with MDA-N, 66.4 µM (inactive); in the experiment on NCI-H460, 75.2 µM (inactive); with OVCAR-3 it was 35.3 µM (inactive); with OVCAR-5, > 100 µM (inactive). The GI50 is 33.2 µM (inactive) in the experiment with RPMI-8226; > 100 µM (inactive) in the experiment with RXF 393; 28.4 µM (inactive) with SF-268; 19.8 µM (inactive) with SF-539; 18.2 µM (inactive) with SK-OV-3; 3.73 µM (inactive) in the experiment with SNB-75. Further, the GI50 with T47D is 24.3 µM (inactive).

With `Nc1ncc(Cc2ccc3c(c2)OCO3)c(N)n1`, the GI50 was > 100 µM (inactive) with ACHN; > 100 µM (inactive) in the experiment with DU-145; 5.83 µM (inactive) in the experiment with HCC 2998; > 100 µM (inactive) in the experiment with HCT-116; > 100 µM (inactive) in the experiment on HOP-62; > 100 µM (inactive) in the experiment with K562. The GI50 in the experiment on LOX IMVI, in the experiment with MDA-MB-435, in the experiment with MDA-N, in the experiment with NCI-H460, in the experiment with OVCAR-3 and in the experiment with OVCAR-4 was > 100 µM (inactive) in each case. Also, the GI50 in the experiment on OVCAR-5, in the experiment on RPMI-8226, with RXF 393, with SF-268, with SF-539 and in the experiment with SK-OV-3 was > 100 µM (inactive) each time. Further, in the experiment with T47D, the GI50 was 91.4 µM (inactive).
